Where two headings read alike, the source gives them in different places.
Experiments:
HCT116 WT = assay: Proliferation of HCT116 colorectal cell line, Cell TiterGlo; type: cell-based, human
Procedure, shortened: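 HCT116 colorectal cells, wild type, GCN2 CRISPR knockout, or wild type plus ISRIB; proliferation read by CellTiter-Glo luminescence. 10-point dose response in triplicate, IC50 reported; multiple values are independent experiments.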

HCT116 GCN2KO = assay: Proliferation of HCT116 cells with GCN2 knocked out (CRISPR), Cell TiterGlo; type: cell-based, human; conditions: Homo sapiens, HCT-116; HCT116 cells with GCN2 knocked out using CRISPR; read-out: HCT116 IC50 (uM) HCT116 − GCN2KO
Protocol: Briefly, compounds were tested for their effect on proliferation of HCT116 colorectal cell lines using Cell TiterGlo (Promega). Each compound was tested in a 10-point dose response experiment in triplicate. Multiple values in the column titled HCT116 WT reflect separate independent experiments. The three columns titled “HCT116 WT (repeat)”, “HCT116-CGN2KO” and “HCT116 WT+ISRIB” provide data for selected compounds that were tested simultaneously under three conditions. The HCT116 WT column lists IC50 against the wild type HCT116 colorectal cancer cell line. The HCT116-CGN2KO lists IC50 data for cells in which one component of the integrated stress response, GCN2, has been knocked out using CRISPR technology.

[1] = Homo sapiens, HCT-116, wild type HCT116, 10-point dose response in triplicate, multiple values = separate independent experiments, read-out: HCT116 IC50 (uM) HCT116 WT
[2] = Homo sapiens, HCT-116, wild type HCT116, tested simultaneously with GCN2KO and +ISRIB, read-out: HCT116 IC50 (uM) HCT116 WT (repeat)
[3] = wild type HCT116, compound plus 10 nM of ISRIB, read-out: HCT116 IC50 (uM) HCT116 WT + ISRIB

| SMILES | IC50 (HCT116 WT; [1]) | IC50 (HCT116 WT; [2]) | IC50 (HCT116 WT; [3]) | IC50 (HCT116 GCN2KO) |
| --- | --- | --- | --- | --- |
| COc1ccccc1C(=O)Nc1ccc(-c2cc(NC(=O)c3ccccc3)n(C)n2)cc1 [SW389001, N-(4-(5-Benzamido-1-methyl-1H-pyrazol-3-yl)phenyl)-2-methoxybenzamide] | 0.31 µM | 0.84 µM | 7 µM | 6.44 µM |
| Cn1nc(-c2ccc(NC(=O)c3ccc(C(=O)c4ccccc4)cc3)cc2)cc1NC(=O)c1ccccc1 [SW389002, N-(4-(5-Benzamido-1-methyl-1H-pyrazol-3-yl)phenyl)-4-benzoylbenzamide] | 7.1 µM | 26.4 µM | 46.3 µM | 31.9 µM |
| Cn1nc(-c2ccc(NC(=O)c3cccc(C(=O)c4ccccc4)c3)cc2)cc1NC(=O)c1ccccc1 [SW389004, N-(4-(5-Benzamido-1-methyl-1H-pyrazol-3-yl)phenyl)-3-benzoylbenzamide] | 5.7 µM | 7.47 µM | 7.22 µM | 7.75 µM |
| C#Cc1cccc(C(=O)Nc2cc(-c3ccc(NC(=O)c4ccccc4)cc3)nn2C)c1 [SW389005, N-(3-(4-Benzamidophenyl)-1-methyl-1H-pyrazol-5-yl)-3-ethynylbenzamide] | 0.313 µM | 0.33 µM | 2.96 µM | 2.97 µM |
| COc1ccccc1C(=O)Nc1cc(-c2ccc(NC(=O)c3ccccc3)cc2)nn1C [SW389006, N-(3-(4-Benzamidophenyl)-1-methyl-1H-pyrazol-5-yl)-2-methoxybenzamide] | 1.23 µM | 0.82 µM | 2.4 µM | 2.34 µM |
| C#Cc1ccc(C(=O)Nc2ccc(-c3cc(NC(=O)c4ccccc4)n(C)n3)cc2)cc1 [SW389007, N-(4-(5-Benzamido-1-methyl-1H-pyrazol-3-yl)phenyl)-4-ethynylbenzamide] | 2 µM | 4.8 µM | 4.42 µM | 5.22 µM |
| C#Cc1ccc(C(=O)Nc2cc(-c3ccc(NC(=O)c4ccccc4)cc3)nn2C)cc1 [SW389008, N-(3-(4-Benzamidophenyl)-1-methyl-1H-pyrazol-5-yl)-4-ethynylbenzamide] | > 50 µM | ≥ 50 µM | – | ≥ 50 µM |
| C#CCOc1ccc(C(=O)c2ccc(C(=O)Nc3ccc(-c4cc(NC(=O)c5ccccc5)n(C)n4)cc3)cc2)cc1 [SW389010, N-(4-(5-Benzamido-1-methyl-1H-pyrazol-3-yl)phenyl)-4-(4-(prop-2-yn-1-yloxy)benzoyl)benzamide] | 20 µM | 43.1 µM | – | 41.1 µM |
| C#CCOc1ccc(C(=O)c2ccc(C(=O)Nc3cc(-c4ccc(NC(=O)c5ccccc5)cc4)nn3C)cc2)cc1 [SW389012, N-(3-(4-Benzamidophenyl)-1-methyl-1H-pyrazol-5-yl)-4-(4-(prop-2-yn-1-yloxy)benzoyl)benzamide] | > 50 µM | 7.01 µM | – | 19.2 µM |
| C#Cc1cccc(C(=O)Nc2ccc(-c3cc(NC(=O)c4ccccc4)n(C)n3)cc2)c1 [SW389013, N-(4-(5-Benzamido-1-methyl-1H-pyrazol-3-yl)phenyl)-3-ethynylbenzamide] | 2.79 µM | 4.21 µM | 19.8 µM | 15.8 µM |
| C#CCOc1ccc(C(=O)c2cccc(C(=O)Nc3cc(-c4ccc(NC(=O)c5ccccc5)cc4)nn3C)c2)cc1 [SW389152, N-(3-(4-Benzamidophenyl)-1-methyl-1H-pyrazol-5-yl)-3-(4-(prop-2-yn-1-yloxy)benzoyl)benzamide] | 0.305 µM | 0.31 µM | 0.71 µM | 0.65 µM |
| Cn1nc(-c2ccc(NC(=O)c3ccccc3)cc2)cc1NC(=O)c1cccc(C(F)(F)F)c1 [SW389155, N-(3-(4-Benzamidophenyl)-1-methyl-1H-pyrazol-5-yl)-3-(trifluoromethyl)benzamide] | 0.416 µM | 0.46 µM | 2.97 µM | 2.2 µM |
| Cc1cccc(C(=O)Nc2cc(-c3ccc(NC(=O)c4ccccc4)cc3)nn2C)c1 [SW389156, N-(3-(4-Benzamidophenyl)-1-methyl-1H-pyrazol-5-yl)-3-methylbenzamide] | 0.298 µM | 0.28 µM | 2.45 µM | 2.22 µM |
| Cn1nc(-c2ccc(NC(=O)c3ccccc3)cc2)cc1NC(=O)c1cccc(N=[N+]=[N-])c1 [SW389157, 3-Azido-N-(3-(4-benzamidophenyl)-1-methyl-1H-pyrazol-5-yl)benzamide] | 0.405 µM | 0.21 µM | 2.5 µM | 2.77 µM |
| Cn1nc(-c2ccc(NC(=O)c3ccccc3)cc2)cc1NC(=O)c1cccc(C#N)c1 [SW389158, N-(3-(4-Benzamidophenyl)-1-methyl-1H-pyrazol-5-yl)-3-cyanobenzamide] | 0.561 µM | 0.39 µM | 3.01 µM | 2.96 µM |
| Cn1nc(-c2ccc(NC(=O)c3ccccc3)cc2)cc1NC(=O)c1cccc(F)c1 [SW389159, N-(3-(4-Benzamidophenyl)-1-methyl-1H-pyrazol-5-yl)-3-fluorobenzamide] | 0.788 µM | 0.38 µM | 2.59 µM | 2.54 µM |
| Cn1nc(-c2ccc(NC(=O)c3cc(NC(=O)OC(C)(C)C)ccc3Cl)cc2)cc1NC(=O)c1ccccc1 [SW394967, tert-butyl (3-((4-(5-benzamido-1-methyl-1H-pyrazol-3-yl)phenyl)carbamoyl)-4-chlorophenyl)carbamate] | 0.541 µM | – | – | – |
| Cn1nc(-c2ccc(NC(=O)c3ccccc3Cl)cc2)cc1NC(=O)c1cccc(OCCNC(=S)Nc2ccc(-c3c4ccc(=O)cc-4oc4cc(O)ccc34)c(C(=O)O)c2)c1 [SW394972, 5-(3-(2-(3-((3-(4-(2-chlorobenzamido)phenyl)-1-methyl-1H-pyrazol-5-yl)carbamoyl)phenoxy)ethyl)thioureido)-2-(6-hydroxy-3-oxo-3H-xanthen-9-yl)benzoic acid] | 1.3 µM | – | – | – |

These reach a lower IC50 (HCT116 WT; [1]). Values come first.

| IC50 (HCT116 WT; [1]) | IC50 (HCT116 WT; [2]) | IC50 (HCT116 WT; [3]) | IC50 (HCT116 GCN2KO) | SMILES |
| --- | --- | --- | --- | --- |
| 0.208 µM | 0.2 µM | 1.73 µM | 1.31 µM | COC(=O)c1cccc(C(=O)Nc2cc(-c3ccc(NC(=O)c4ccccc4)cc3)nn2C)c1 [SW389153, Methyl 3-((3-(4-benzamidophenyl)-1-methyl-1H-pyrazol-5-yl)carbamoyl)benzoate] |
| 0.195 µM | 0.18 µM | 0.77 µM | 0.53 µM | Cn1nc(-c2ccc(NC(=O)c3ccccc3)cc2)cc1NC(=O)c1cccc(C(=O)c2ccccc2)c1 [SW389154, N-(3-(4-Benzamidophenyl)-1-methyl-1H-pyrazol-5-yl)-3-benzoylbenzamide] |
| 0.062 µM | – | – | – | Cn1nc(-c2ccc(NC(=O)c3ccccc3Cl)cc2)cc1NC(=O)c1cccc(OCCNC(=O)OC(C)(C)C)c1 [SW394968, tert-butyl (2-(3-((3-(4-(2-chlorobenzamido)phenyl)-1-methyl-1H-pyrazol-5-yl)carbamoyl)phenoxy)ethyl)carbamate] |
| 0.055 µM | – | – | – | Cn1nc(-c2ccc(NC(=O)c3ccccc3Cl)cc2)cc1NC(=O)c1cccc(CN)c1 [SW394966, N-(4-(5-(3-(aminomethyl)benzamido)-1-methyl-1H-pyrazol-3-yl)phenyl)-2-chlorobenzamide] |
| 0.05 µM | – | – | – | Cn1nc(-c2ccc(NC(=O)c3ccccc3Cl)cc2)cc1NC(=O)c1cccc(CNC(=O)OC(C)(C)C)c1 [SW394896-1, tert-butyl (3-((3-(4-(2-chlorobenzamido)phenyl)-1-methyl-1H-pyrazol-5-yl)carbamoyl)benzyl)carbamate] |
| 0.05 µM | – | – | – | Cn1nc(-c2ccc(NC(=O)c3ccccc3Cl)cc2)cc1NC(=O)c1cccc(OCCN)c1 [SW394970, N-(4-(5-(3-(2-aminoethoxy)benzamido)-1-methyl-1H-pyrazol-3-yl)phenyl)-2-chlorobenzamide] |
| 0.03 µM | – | – | – | Cn1nc(-c2ccc(NC(=O)c3ccccc3Cl)cc2)cc1NC(=O)c1cccc(NS(C)(=O)=O)c1 [SW394895-1, 2-chloro-N-(4-(1-methyl-5-(3-(methylsulfonamido)benzamido)-1H-pyrazol-3-yl)phenyl)benzamide] |
| 0.03 µM | – | – | – | Cn1nc(-c2ccc(NC(=O)c3ccccc3Cl)cc2)cc1NC(=O)C1CC2CCC1CC2 (centres unmarked) [SW394969, N-(3-(4-(2-chlorobenzamido)phenyl)-1-methyl-1H-pyrazol-5-yl)bicyclo[2.2.2]octane-2-carboxamide] |
| 0.02 µM | – | – | – | Cn1nc(-c2ccc(NC(=O)c3ccccc3Cl)cc2)cc1NC(=O)c1cccc(NC(=O)OC(C)(C)C)c1 [SW394897-1, tert-butyl (3-((3-(4-(2-chlorobenzamido)phenyl)-1-methyl-1H-pyrazol-5-yl)carbamoyl)phenyl)carbamate] |
| 0.02 µM | – | – | – | Cn1nc(-c2ccc(NC(=O)c3ccccc3Cl)cc2)cc1NC(=O)c1cccc(OCCNc2ccc([N+](=O)[O-])c3nonc23)c1 [SW394971, 2-Chloro-N-(4-(1-methyl-5-(3-(2-((7-nitrobenzo[c][1,2,5]oxadiazol-4-yl)amino)ethoxy)benz-amido)-1H-pyrazol-3-yl)phenyl)benzamide] |
| 0.01 µM | – | – | – | CC(=O)Nc1cccc(C(=O)Nc2cc(-c3ccc(NC(=O)c4ccccc4Cl)cc3)nn2C)c1 [SW394894-1, N-(4-(5-(3-acetamidobenzamido)-1-methyl-1H-pyrazol-3-yl)phenyl)-2-chlorobenzamide] |
